Assay results as given in US20070135470A1, “Utilization of vinpocetine to avoid complications in particular those associated to hearing which occur with epilepsy, and treatment thereof” (UNIVERSIDAD NACIONAL AUTONOMA DE MEXICO, priority 2003, published 2007).

Legend:
Type in all cases: in vivo, guinea pig
[1] = test system: epilepsy induced by 4-AP in guinea pigs; assay: ABR wave parameters (amplitude, latency) in 4-AP-induced epilepsy; details: 100 dB, vinpocetine 2 mg/kg or vehicle 1 h before 4-AP
Experimental: (§1) Experiments were performed in pigmented adult male guinea pigs initially weighing 349±38 g. ABRs recordings were used to evaluate the hearing status of each animal and EEG recordings to evaluate changes in cortical excitability. The ABR and EEG recordings were obtained following a method that we have previously reported (Nekrassov and Sitges, 2003). The Institutional Animal Use and Care Committee approved all experimental procedures.
(§2) Three types of recordings were performed in the anaesthetized animals, namely the ABR recordings elicited by a stimulus of high intensity (100 dB), the ABR recordings for determination of the auditory threshold and the EEG recordings.
(§3) Determination of ABR wave parameters. The latency and amplitude of each wave component of the ABR elicited by a stimulus of 100 dB with pure tone frequencies of 4 and 8 kHz was measured in all the ABR recordings obtained under the different experimental conditions at the specified times. The latency of each ABR wave (in ms) refers to the time interval between the onset of the auditory stimulus and the positive peak of the wave. The onset of the stimulus is indicated by the vertical arrow at the bottom of the recordings on FIG. 1. The peak amplitude (in μV) of each wave of the ABR is the difference between the positive peak of the wave and the reference baseline (trace between the stimulus and the appearance of the first ABR wave on FIG. 1).
(§4) Student's t-test was used for the evaluation of the differences between results obtained before and at the specified times after the injection of the convulsing agents. The criterion for statistical significance for all measures was P≦0.05. All data are expressed as means±standard error of the mean. In figures and tables the symbol * is used for indicating statistic significant differences.
(§5) Five guinea pigs were entered into the study. One hour after injecting guinea pigs with vehicle (acidified saline used to dissolve vinpocetine) the animals were anaesthetized and a first set of ABR and EEG recordings was taken before the injection (i.p) of the convulsing agent, 4-AP. The animals were injected with 4-AP (2 mg/kg) and about 20 min after injecting 4-AP (ictal period) the EEG recording was taken. Then the other series of ABR and EEG recordings were taken at specific times within the post-ictal period. After two weeks the same series of recordings were repeated but instead vehicle the animals were injected with vinpocetine (2 mg/kg) 1 hour before the injection of 4-AP.

[2] = test system: hearing loss induced by 4-AP in guinea pigs; assay: ABR (auditory) threshold in 4-AP-induced epilepsy; details: vinpocetine 2 mg/kg or vehicle 1 h before 4-AP
Experimental: as §1, §2
(§6) Determination of ABR thresholds. ABR recordings elicited by stimuli of progressively lower intensity (in dB) were used for determining the hearing threshold. Threshold is defined as the lowest stimulus intensity (in dB) at which the P3 wave of the ABR could still be recorded in three consecutive trials.
as §4, §5

[3] = test system: epileptic cortical activity induced by 4-AP in guinea pigs; assay: EEG recordings of cortical activity in 4-AP-induced epilepsy; details: 4-AP 2 mg/kg i.p.
Experimental: as §1, §2, §5
Vinpocetine inhibits all the changes induced by 4-AP on the EEG. […] This change on the cortical activity elicited by 4-AP for the ictal period is followed by the post-ictal period characterized by isolated spikes of higher amplitude that appear on the EEG about one hour after the injection of 4-AP. […] The top traces of FIG. 6 show the characteristic EEG recordings taken before the injection of 4-AP in the animals pre-injected with vehicle (a) and in the animals pre-injected with vinpocetine (b). The changes induced by 4-AP on for the ictal period are shown in the second trace on FIG. 6a. In the vinpocetine treated animals 4-AP was unable to induce the ictal activity (second trace on FIG. 6b).

[4] = test system: epilepsy induced by PTZ in guinea pigs; assay: ABR wave parameters (amplitude, latency) in PTZ-induced epilepsy; details: 100 dB, vinpocetine 2 mg/kg or vehicle 4 h before PTZ
Experimental: as §1, §2, §3, §4
(§7) Eight male guinea pigs were entered into this study. PTZ was dissolved in saline and vinpocetine in a saline acidified (with HCl) adjusted to pH 4 (with NaOH). Four hours after injecting guinea pigs with vehicle (acidified saline used to dissolve vinpocetine) the animals were anaesthetized and a first set of ABR and EEG recordings was taken before the injection (i.p) of the convulsing agent, PTZ. The animals were injected with PTZ (100 mg/kg) and about 2 min after injecting PTZ (ictal period) the EEG recording was taken. Then the other series of ABR and EEG recordings were taken at specific times within the post-ictal period. After two weeks the same series of recordings was taken but instead vehicle the animals were injected with vinpocetine (2 mg/kg) 4 hours before the injection of PTZ.

[5] = test system: hearing loss induced by PTZ in guinea pigs; assay: ABR (auditory) threshold in PTZ-induced epilepsy; details: vinpocetine 2 mg/kg or vehicle 4 h before PTZ
Experimental: as §1, §2, §6, §4, §7

[6] = test system: epileptic cortical activity induced by PTZ in guinea pigs; assay: EEG recordings of cortical activity in PTZ-induced epilepsy; details: PTZ 100 mg/kg i.p.
Experimental: as §1, §2, §7
Vinpocetine inhibits all the changes induced by PTZ on the EEG. […] This dramatic change on the cortical activity induced by PTZ in the anaesthetized animals during convulsions is followed by a typical pattern of cortical activity characterized by rhythmic spike bursts of high amplitude. The duration time of this typical pattern of cortical activity, that is not accompanied by convulsions is referred as the post-ictal period.

[7] = 4 kHz, 30 min after 4-AP 2 mg/kg i.p.
[8] = 4 kHz, 60 min after 4-AP 2 mg/kg i.p.
[9] = 8 kHz, 30 min after 4-AP 2 mg/kg i.p.
[10] = 8 kHz, 60 min after 4-AP 2 mg/kg i.p.
[11] = animals pre-injected with vehicle
[12] = 4 kHz, 30 min after PTZ 100 mg/kg i.p.
[13] = 4 kHz, 50 min after PTZ 100 mg/kg i.p.
[14] = 8 kHz, 30 min after PTZ 100 mg/kg i.p.
[15] = 8 kHz, 50 min after PTZ 100 mg/kg i.p.

With Nc1ccncc1 [4-AP, 4-aminopyridine] the “latency of the P4 wave of the ABR” value [1, 7] was 3.78 ± 0.09 * ms, the “latency of the P4 wave of the ABR” value [1, 8] was 3.78 ± 0.09 * ms and the “latency of the P4 wave of the ABR” value ([1]; 4 kHz, 80 min after 4-AP 2 mg/kg i.p.) was 3.78 ± 0.09 * ms. For the same compound, the “latency of the P4 wave of the ABR” value ([1]; 4 kHz, 100 min after 4-AP 2 mg/kg i.p.) was 3.75 ± 0.10 * ms, the “latency of the P4 wave of the ABR” value [1, 9] was 3.51 ± 0.13 ms and the “latency of the P4 wave of the ABR” value [1, 10] was 3.80 ± 0.10 * ms. For the same compound, the “latency of the P4 wave of the ABR” value ([1]; 8 kHz, 80 min after 4-AP 2 mg/kg i.p.) was 3.80 ± 0.10 * ms, the “latency of the P4 wave of the ABR” value ([1]; 8 kHz, 100 min after 4-AP 2 mg/kg i.p.) was 3.83 ± 0.12 * ms and the auditory threshold [2, 7] was 20 ± 2.0 * dB. The auditory threshold [2, 8] was 30 ± 3.5 * dB, the auditory threshold [2, 9] was 10.0 ± 2.0 * dB and the auditory threshold [2, 10] was 23.8 ± 6.3 * dB. For the same compound, the “time of appearance of seizure (spike-sharp wave) activity in the EEG after injection” value [3] was “about 20 min” and the “seizure induction in anaesthetized animals” value [3, 11] was “developed generalized seizures”.
For C1CCc2nnnn2CC1 [PTZ, pentylenetetrazole], the “P4 wave peak amplitude of the ABR” value ([4]; 4 kHz, 10 min after PTZ 100 mg/kg i.p.) was 1.70 ± 0.5 * μV, the “P4 wave peak amplitude of the ABR” value ([4]; 4 kHz, 20 min after PTZ 100 mg/kg i.p.) was 2.12 ± 0.4 * μV and the “P4 wave peak amplitude of the ABR” value [4, 12] was 1.84 ± 0.4 * μV. For the same compound, the “P4 wave peak amplitude of the ABR” value [4, 13] was 2.11 ± 0.3 * μV, the “P4 wave peak amplitude of the ABR” value ([4]; 8 kHz, 10 min after PTZ 100 mg/kg i.p.) was 2.07 ± 0.4 * μV and the “P4 wave peak amplitude of the ABR” value ([4]; 8 kHz, 20 min after PTZ 100 mg/kg i.p.) was 1.99 ± 0.3 * μV. The “P4 wave peak amplitude of the ABR” value [4, 14] was 1.92 ± 0.3 * μV, the “P4 wave peak amplitude of the ABR” value [4, 15] was 1.51 ± 0.5 * μV and the auditory threshold [5, 12] was 28 ± 2.0 * dB. The auditory threshold [5, 13] was 29 ± 1.0 * dB, the auditory threshold [5, 14] was 17 ± 2.0 * dB and the auditory threshold [5, 15] was 21 ± 2.4 * dB. For the same compound, the “onset of seizure activity in the EEG after injection” value [6] was “within the two first min” and the “seizure induction in anaesthetized animals” value [6, 11] was “developed generalized seizures”.
